Test results reported in ChEMBL document CHEMBL1201862, “PubChem BioAssay data set” (2004).
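A five-concentration, 48-hour dose response in 96-well plates underlies each endpoint, interpolated linearly between surrounding concentrations. The concentration for 50% growth inhibition is given as GI50.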 Activity calls are given as the source filed them. Rule as the data show it: active = GI50 up to about 1.1 µM and inactive = higher.

Columns and labels:
Assay in all cases: NCI tumour cell line growth inhibition, 48 h
[1] = test system: A498
[2] = test system: CAKI-1
[3] = test system: HCT-15
[4] = test system: HOP-62
[5] = test system: HOP-92
[6] = test system: M14
[7] = test system: MCF7
[8] = test system: MOLT-4
[9] = test system: NCI-H226
[10] = test system: NCI/ADR-RES
[11] = test system: RPMI-8226
[12] = test system: SF-268
[13] = test system: SF-295
[14] = test system: SK-MEL-2
[15] = test system: SNB-19
[16] = test system: SNB-75
[17] = test system: SR
[18] = test system: TK-10
[19] = test system: Hs-578T
[20] = test system: K562

Row | SMILES | GI50 [1] | GI50 [2] | GI50 [3] | GI50 [4] | GI50 [5] | GI50 [6] | GI50 [7] | GI50 [8] | GI50 [9] | GI50 [10] | GI50 [11] | GI50 [12] | GI50 [13] | GI50 [14] | GI50 [15] | GI50 [16] | GI50 [17] | GI50 [18] | GI50 [19] | GI50 [20]
1 | Cn1c(=O)oc2nc(-c3ccccc3)cc(C(F)(F)F)c21 | 39.2 µM (inactive) | > 100 µM (inactive) | > 100 µM | > 100 µM (inactive) | 35.7 µM (inactive) | > 100 µM (inactive) | 37.8 µM (inactive) | 14.3 µM (inactive) | > 100 µM (inactive) | 58.3 µM (inactive) | 30.5 µM (inactive) | > 100 µM (inactive) | > 100 µM (inactive) | > 100 µM (inactive) | > 100 µM (inactive) | > 100 µM (inactive) | 44.6 µM (inactive) | > 100 µM (inactive) |  | 
2 | CC1OC1P(=O)(O)O (stereo not drawn) | > 100 µM (inactive) | > 100 µM (inactive) | > 100 µM | > 100 µM (inactive) | > 100 µM (inactive) |  | > 100 µM (inactive) | > 100 µM (inactive) |  |  | 28 µM (inactive) | > 100 µM (inactive) | > 100 µM (inactive) | > 100 µM (inactive) | > 100 µM (inactive) | > 100 µM (inactive) | > 100 µM (inactive) | > 100 µM (inactive) | > 100 µM (inactive) | > 100 µM (inactive)
3 | CCOC(=O)C(NC(=O)C(CCCCNP(=O)(OCC)OCC)NC(=O)C(C)NC(C)=O)C(C)C (stereo not drawn) | 80.7 µM (inactive) | > 100 µM (inactive) | > 100 µM | > 100 µM (inactive) | > 100 µM (inactive) | > 100 µM (inactive) | > 100 µM (inactive) | > 100 µM (inactive) | > 100 µM (inactive) | > 100 µM (inactive) | > 100 µM (inactive) | > 100 µM (inactive) | > 100 µM (inactive) | > 100 µM (inactive) | > 100 µM (inactive) | > 100 µM (inactive) | > 100 µM (inactive) | > 100 µM (inactive) |  | > 100 µM (inactive)
4 | Nc1nc2cc(CNc3ccc(C(=O)NC(CCC(=O)O)C(=O)O)cc3)ccc2nc1-c1ccccc1 (stereo not drawn) | > 10 µM (inactive) | > 10 µM (inactive) | > 10 µM | > 10 µM (inactive) |  | > 10 µM (inactive) | > 10 µM (inactive) | > 10 µM (inactive) | > 10 µM (inactive) | > 10 µM (inactive) | > 10 µM (inactive) | > 10 µM (inactive) | > 10 µM (inactive) | > 10 µM (inactive) | > 10 µM (inactive) | > 10 µM (inactive) |  | > 10 µM (inactive) | > 10 µM (inactive) | > 10 µM (inactive)
5 | CCOC(=O)c1cc(-c2ccc(Cl)cc2)c([N+](=O)[O-])n1C |  |  | > 10 µM |  | > 10 µM (inactive) | > 10 µM (inactive) |  | > 10 µM (inactive) | > 10 µM (inactive) |  |  | > 10 µM (inactive) | > 10 µM (inactive) | > 10 µM (inactive) | > 10 µM (inactive) |  | 5.08 µM (inactive) | > 10 µM (inactive) | > 10 µM (inactive) | > 10 µM (inactive)
6 | COc1cc2c(cc1O)CC[n+]1cc3c(OC)c(OC)ccc3cc1-2 | > 100 µM (inactive) | > 100 µM (inactive) | > 100 µM |  | 87.7 µM (inactive) | > 100 µM (inactive) | > 100 µM (inactive) | > 100 µM (inactive) | > 100 µM (inactive) | > 100 µM (inactive) | 81.8 µM (inactive) | > 100 µM (inactive) | > 100 µM (inactive) | > 100 µM (inactive) | 60.1 µM (inactive) | > 100 µM (inactive) |  | > 100 µM (inactive) | > 100 µM (inactive) | 75 µM (inactive)
7 | COc1ccc(-n2c(=O)c3nc[nH]c3n(-c3ccc(OC)cc3)c2=S)cc1 | > 100 µM (inactive) | > 100 µM (inactive) | > 100 µM | > 100 µM (inactive) | > 100 µM (inactive) | > 100 µM (inactive) | > 100 µM (inactive) | > 100 µM (inactive) | > 100 µM (inactive) | > 100 µM (inactive) | > 100 µM (inactive) | > 100 µM (inactive) | > 100 µM (inactive) | > 100 µM (inactive) |  | > 100 µM (inactive) | > 100 µM (inactive) | > 100 µM (inactive) |  | > 100 µM (inactive)
8 | CC(C)=C[C@H]1CCC2(OCCO2)[C@]1(C)CO | > 100 µM (inactive) | > 100 µM (inactive) | > 100 µM |  |  | > 100 µM (inactive) | > 100 µM (inactive) |  | > 100 µM (inactive) | > 100 µM (inactive) | > 100 µM (inactive) | > 100 µM (inactive) | > 100 µM (inactive) | > 100 µM (inactive) | > 100 µM (inactive) | > 100 µM (inactive) |  | > 100 µM (inactive) |  | 
9 | CN(C)CCNC(=O)c1cnn(C)c1[N+](=O)[O-] | > 100 µM (inactive) | > 100 µM (inactive) | > 100 µM | > 100 µM (inactive) |  | > 100 µM (inactive) | 63.4 µM (inactive) | > 100 µM (inactive) | > 100 µM (inactive) |  | > 100 µM (inactive) | > 100 µM (inactive) | > 100 µM (inactive) | > 100 µM (inactive) | > 100 µM (inactive) | > 100 µM (inactive) | > 100 µM (inactive) | > 100 µM (inactive) | > 100 µM (inactive) | > 100 µM (inactive)
10 | CCOC(=O)C1C(C)C2(C#N)C(=N)OC1(C)C2(C#N)C#N (stereo not drawn) | > 100 µM (inactive) | 53.6 µM (inactive) | 12.5 µM |  | 30.1 µM (inactive) | > 100 µM (inactive) | 55.2 µM (inactive) |  | 73.8 µM (inactive) | > 100 µM (inactive) | 18.5 µM (inactive) | 57.9 µM (inactive) | > 100 µM (inactive) | 58.2 µM (inactive) | 79.3 µM (inactive) | 27.6 µM (inactive) |  | 77.6 µM (inactive) | 40.9 µM (inactive) | 39.4 µM (inactive)
11 | O=C1c2ccccc2C(=O)N1NC1=NCCN1 | > 100 µM (inactive) | > 100 µM (inactive) | > 100 µM | > 100 µM (inactive) |  | > 100 µM (inactive) | > 100 µM (inactive) | > 100 µM (inactive) | > 100 µM (inactive) | > 100 µM (inactive) | > 100 µM (inactive) | > 100 µM (inactive) | > 100 µM (inactive) | > 100 µM (inactive) | > 100 µM (inactive) |  | > 100 µM (inactive) | > 100 µM (inactive) |  | > 100 µM (inactive)
12 | CC(C(O)c1ccccc1)N(C)/N=N/c1nc2c([nH]1)c(=O)n(C)c(=O)n2C (stereo not drawn) |  | 58.6 µM (inactive) | 90.4 µM | > 100 µM (inactive) |  | > 100 µM (inactive) | 26.1 µM (inactive) | 38.3 µM (inactive) | > 100 µM (inactive) | > 100 µM (inactive) | 48.9 µM (inactive) | > 100 µM (inactive) | > 100 µM (inactive) | > 100 µM (inactive) | > 100 µM (inactive) | > 100 µM (inactive) |  | 64.1 µM (inactive) | > 100 µM (inactive) | 91 µM (inactive)
13 | CC(CO)C1C[C@H](O)[C@@]2(C)CC(=O)C=C(CO)[C@@H]2C1 (stereo partly drawn) | > 100 µM (inactive) | > 100 µM (inactive) | > 100 µM | > 100 µM (inactive) | > 100 µM (inactive) | > 100 µM (inactive) | > 100 µM (inactive) | > 100 µM (inactive) | > 100 µM (inactive) | > 100 µM (inactive) |  | > 100 µM (inactive) | > 100 µM (inactive) | > 100 µM (inactive) | > 100 µM (inactive) | > 100 µM (inactive) |  | > 100 µM (inactive) |  | 
14 | O=C(Nc1ccc(C(F)(F)F)cc1[N+](=O)[O-])C(=O)C(C(=O)c1ccc2ccccc2c1)C1OC(=O)c2ccccc21 (stereo not drawn) | 4.09 µM (inactive) | 8.26 µM (inactive) | 8.81 µM | 5.74 µM (inactive) | 0.34 µM (active) | 13.6 µM (inactive) |  | 2.26 µM (inactive) | 0.681 µM (active) |  | 4.11 µM (inactive) | 4.16 µM (inactive) | 4.85 µM (inactive) | 13 µM (inactive) | 8.51 µM (inactive) | 6.97 µM (inactive) | 2.81 µM (inactive) | 18.5 µM (inactive) |  | 5.57 µM (inactive)
15 | Cc1c(O)c(OC2OC(CO)C(O)C(O)C2O)cc2c1CC[C@@H]1C2(C)C(=O)C[C@]2(C)[C@@H]([C@@](C)(O)C(=O)CCC(C)(C)O)[C@H](O)C[C@@]12C (stereo partly drawn) | > 100 µM (inactive) | > 100 µM (inactive) | > 100 µM | > 100 µM (inactive) | > 100 µM (inactive) | > 100 µM (inactive) | > 100 µM (inactive) | > 100 µM (inactive) | > 100 µM (inactive) | > 100 µM (inactive) |  | > 100 µM (inactive) | > 100 µM (inactive) | > 100 µM (inactive) | > 100 µM (inactive) | > 100 µM (inactive) | > 100 µM (inactive) | > 100 µM (inactive) |  | > 100 µM (inactive)
16 | C=CCCCC1CCCNC1=O (stereo not drawn) | > 100 µM (inactive) | > 100 µM (inactive) | 19 µM | > 100 µM (inactive) | > 100 µM (inactive) | > 100 µM (inactive) | > 100 µM (inactive) | > 100 µM (inactive) | > 100 µM (inactive) |  | > 100 µM (inactive) | > 100 µM (inactive) | > 100 µM (inactive) | > 100 µM (inactive) | > 100 µM (inactive) | > 100 µM (inactive) |  | > 100 µM (inactive) | > 100 µM (inactive) | > 100 µM (inactive)
